Patent publication US9944654B2, “Nargenicin compounds and uses thereof as antibacterial agents” (priority 2014, dated 2018)
In brackets after ≈: the same amount, converted by molar mass. Read-outs that look alike come from different tables or passages of the source.

How the values were obtained:
[1] = tested on: Staphylococcus aureus MB6266 (MRSA COL); assay: Nargenicin antibacterial assay (MIC), S. aureus; assay type: cell-based; conditions: * = some reduction of growth versus control at […]; for MIC: Staphylococcus aureus, MRSA, read-out: S. aureus COL (MIC), MHII broth + 50% human serum; for S. aureus COL (MIC): MHII broth + 50% human serum
[2] = tested on: Streptococcus pneumoniae MB6357 (CL 2883); assay: Nargenicin antibacterial assay (MIC), S. pneumoniae; assay type: cell-based; conditions: * = some reduction of growth versus control at […]; for MIC: Streptococcus pneumoniae, read-out: S. pneumoniae MB2883 (MIC), Isosensitest broth; for S. pneumoniae MB2883 (MIC): Isosensitest broth
[3] = target: T1, S. aureus DnaE (DNA polymerase III α-subunit homolog from Staphylococcus aureus) (Staphylococcus aureus, UniProt Q5HF71); assay: biochemical; assay type: biochemical; conditions: for IC50: S. aureus DnaE IC50
T1 construct: SaDnaE (S. aureus DnaE residues 1-1065); 6xHis (N); made in house; host or cells: E. coli BL21-AI
T1 sequence (Q5HF71 1-1065): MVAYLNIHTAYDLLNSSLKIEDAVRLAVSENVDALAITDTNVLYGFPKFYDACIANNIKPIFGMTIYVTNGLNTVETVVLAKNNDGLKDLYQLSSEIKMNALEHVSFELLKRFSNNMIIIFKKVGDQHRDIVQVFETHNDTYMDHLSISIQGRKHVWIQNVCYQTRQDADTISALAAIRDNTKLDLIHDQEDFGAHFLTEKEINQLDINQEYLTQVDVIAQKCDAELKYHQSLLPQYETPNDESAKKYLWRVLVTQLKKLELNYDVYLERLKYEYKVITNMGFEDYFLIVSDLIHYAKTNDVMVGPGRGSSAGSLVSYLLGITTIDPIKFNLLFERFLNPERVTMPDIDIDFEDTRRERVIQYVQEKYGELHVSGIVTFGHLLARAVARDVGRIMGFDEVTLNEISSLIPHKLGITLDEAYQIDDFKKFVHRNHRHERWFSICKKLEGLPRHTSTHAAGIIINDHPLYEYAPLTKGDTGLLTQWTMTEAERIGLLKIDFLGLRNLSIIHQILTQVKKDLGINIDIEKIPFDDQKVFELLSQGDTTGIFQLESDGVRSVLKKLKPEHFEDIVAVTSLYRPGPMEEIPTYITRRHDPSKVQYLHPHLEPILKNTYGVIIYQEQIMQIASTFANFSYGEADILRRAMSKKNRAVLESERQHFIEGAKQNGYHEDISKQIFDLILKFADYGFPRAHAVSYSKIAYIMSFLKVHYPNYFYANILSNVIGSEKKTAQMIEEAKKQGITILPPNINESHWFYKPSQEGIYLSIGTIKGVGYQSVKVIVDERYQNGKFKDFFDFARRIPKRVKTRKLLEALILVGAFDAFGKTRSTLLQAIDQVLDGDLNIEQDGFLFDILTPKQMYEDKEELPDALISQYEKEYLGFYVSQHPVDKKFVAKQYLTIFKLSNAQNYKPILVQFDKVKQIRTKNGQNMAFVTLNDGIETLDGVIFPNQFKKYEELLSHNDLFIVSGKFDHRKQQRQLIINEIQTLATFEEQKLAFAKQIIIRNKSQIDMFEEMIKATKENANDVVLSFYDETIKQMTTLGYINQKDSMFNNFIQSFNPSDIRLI
Summary of the method: (§1)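 3H-dTTP (0.011 mM) incorporation into DNase I-activated calf thymus DNA, alongside the other three dNTPs at 0.025 mM, measured by filter counting after TCA precipitation. Reactions ran 30 min at 30° C., started with purified N-His DnaE: 0.8 μg/ml for E. coli, 0.05 μg/ml for S. aureus.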

[4] = target: T2, E. coli DnaE (DNA polymerase III α-subunit from Escherichia coli) (Escherichia coli, UniProt P10443); assay: In vitro DnaE single enzyme assay (E. coli); assay type: biochemical
T2 construct: EcDnaE (E. coli DnaE residues 1-1160); 6xHis (N); made in house; host or cells: E. coli BL21(DE3)
T2 sequence (P10443 whole entry, the tested form may be a part): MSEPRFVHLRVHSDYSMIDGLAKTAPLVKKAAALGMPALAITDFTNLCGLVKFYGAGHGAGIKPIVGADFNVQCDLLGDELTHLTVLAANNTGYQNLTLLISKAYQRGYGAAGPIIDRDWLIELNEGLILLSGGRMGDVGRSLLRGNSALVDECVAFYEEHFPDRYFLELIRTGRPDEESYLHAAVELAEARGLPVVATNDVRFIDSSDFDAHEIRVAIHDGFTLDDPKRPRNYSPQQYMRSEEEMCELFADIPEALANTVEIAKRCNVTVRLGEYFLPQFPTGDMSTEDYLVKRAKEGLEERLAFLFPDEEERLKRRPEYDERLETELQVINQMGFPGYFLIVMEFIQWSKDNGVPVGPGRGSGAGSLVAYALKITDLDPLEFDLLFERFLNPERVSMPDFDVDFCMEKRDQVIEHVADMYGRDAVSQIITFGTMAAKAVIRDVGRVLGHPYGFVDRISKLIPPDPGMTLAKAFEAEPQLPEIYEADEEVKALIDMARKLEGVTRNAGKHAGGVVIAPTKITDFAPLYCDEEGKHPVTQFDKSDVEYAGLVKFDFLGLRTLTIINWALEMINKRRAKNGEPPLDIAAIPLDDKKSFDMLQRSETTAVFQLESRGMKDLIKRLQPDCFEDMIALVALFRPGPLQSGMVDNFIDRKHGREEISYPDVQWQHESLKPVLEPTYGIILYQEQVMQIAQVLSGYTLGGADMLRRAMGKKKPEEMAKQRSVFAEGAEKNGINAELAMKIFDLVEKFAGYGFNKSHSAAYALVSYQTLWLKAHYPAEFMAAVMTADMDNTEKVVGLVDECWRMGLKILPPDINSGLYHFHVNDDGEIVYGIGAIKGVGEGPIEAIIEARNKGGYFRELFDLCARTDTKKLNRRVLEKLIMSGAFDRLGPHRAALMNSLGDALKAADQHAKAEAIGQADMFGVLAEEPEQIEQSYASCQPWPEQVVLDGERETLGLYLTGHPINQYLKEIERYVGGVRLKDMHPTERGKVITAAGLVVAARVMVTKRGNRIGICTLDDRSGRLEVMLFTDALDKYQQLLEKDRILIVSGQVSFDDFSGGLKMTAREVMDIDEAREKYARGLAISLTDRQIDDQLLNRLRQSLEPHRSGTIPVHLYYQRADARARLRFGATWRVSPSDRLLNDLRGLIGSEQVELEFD
Summary of the method: as §1

[5] = tested on: Pseudomonas aeruginosa MB5890 (CB1101, efflux-deleted); assay: microbe, parasite or virus in culture; assay type: cell-based; conditions: * = some reduction of growth versus control at […]; for MIC: Pseudomonas aeruginosa, read-out: P. aeruginosa MB5890 efflux-del (MIC), MHII broth; for P. aeruginosa MB5890 efflux-del (MIC): MHII broth
[6] = tested on: Escherichia coli MB5747 (LS 883, tolC); assay: microbe, parasite or virus in culture; assay type: cell-based; conditions: * = some reduction of growth versus control at […]; for MIC: Escherichia coli, read-out: E. coli LS883 tolC (MIC), MHII broth; for E. coli LS883 tolC (MIC): MHII broth
[7] = read-out: E. coli DnaE IC50 (converted)

Row | Compound | MIC [1] [µg/mL] | MIC [2] [µg/mL] | IC50 [3] [nM] | IC50 [4, 7] [µM] | MIC [5] [µg/mL] | MIC [6] [µg/mL] | IC50 ([4]; E. coli DnaE IC50) [µM] | S. aureus COL (MIC) [1] [µg/mL] | S. pneumoniae MB2883 (MIC) [2] | S. aureus DnaE IC50 [3] [ng/mL] | E. coli DnaE IC50 [4] [µg/mL] | P. aeruginosa MB5890 efflux-del (MIC) [5] [µg/mL] | E. coli LS883 tolC (MIC) [6] [µg/mL]
1 | CO[C@H]1CC2C=C[C@H]3[C@H]4O[C@]2(/C(C)=C/[C@@H](C)[C@@H]([C@@H](C)OC(=O)C[n+]2ccc(C(N)=O)cc2)OC1=O)[C@@H]3[C@H](O)[C@@H](C)[C@H]4OC(=O)c1ccc[nH]1 (stereo partly drawn) [Example 70] | 0.5 | > 128 | < 8.84 | 13.3 | 16 | 0.5 |  |  |  |  |  |  | 
2 | CO[C@H]1CC2C=C[C@H]3[C@H]4O[C@]2(/C(C)=C/[C@@H](C)[C@@H]([C@@H](C)OC(=O)C[n+]2ccccc2)OC1=O)[C@@H]3[C@H](O)[C@@H](C)[C@H]4OC(=O)c1ccc[nH]1 (stereo partly drawn) [Example 71] | 0.25 | > 128 | < 9.44 | 18.9 | 8 | 0.25 |  |  |  |  |  |  | 
3 | CO[C@H]1C[C@H]2C=C[C@H]3[C@H]4O[C@]2(/C(C)=C/[C@@H](C)[C@@H]([C@@H](C)OC(=O)C[N+]25CC[N+](CC(N)=O)(CC2)CC5)OC1=O)[C@@H]3[C@H](O)[C@@H](C)[C@H]4OC(=O)c1ccc[nH]1.O=S(=O)([O-])C(F)(F)F.[Br-] [Example 74] | 0.5 | > 128 | < 6.28 | 20.9 | 32 | 0.5 |  |  |  |  |  |  | 
4 | CO[C@H]1C[C@H]2C=CC3C4[C@H](O)[C@@H](C)[C@@H](OC(=O)c5ccc[nH]5)[C@@H]3O[C@]42/C(C)=C/[C@@H](C)[C@@H]([C@@H](C)OC(=O)C(=O)NCc2ccccc2)OC1=O [Example 114, (3R,4S,7S,8aS,11R,12R,13R,14R,14bS,E)-4-((R)-1-(2-(benzylamino)-2-oxoacetoxy)ethyl)-14-hydroxy-7-methoxy-1,3,13-trimethyl-6-oxo-3,4,6,7,8,8a,10a,11,12,13,14,14a-dodecahydro-11,14b-epoxynaphtho[2,1-e]oxecin-12-yl 1H-pyrrole-2-carboxylate] | < 0.125 | > 128 | < 8.87 |  | 8 (≈ 11.8 µM) | 0.25 (≈ 0.369 µM) | 16.3 |  |  |  |  |  | 
5 | CO[C@H]1C[C@H]2C=CC3C4[C@H](O)[C@@H](C)[C@@H](OC(=O)c5ccc[nH]5)[C@@H]3O[C@]42/C(C)=C/[C@@H](C)[C@@H]([C@@H](C)OC(=O)C(=O)NCc2ccncc2)OC1=O [Example 115] |  |  |  |  |  |  |  | 0.5 | >64 µg/mL | <6 | 9 | 8 | 0.5
6 | CO[C@H]1C[C@H]2C=CC3C4[C@H](O)[C@@H](C)[C@@H](OC(=O)c5ccc[nH]5)[C@@H]3O[C@]42/C(C)=C/[C@@H](C)[C@@H]([C@@H](C)OC(=O)C(=O)NC(C)(C)C)OC1=O [Example 116] |  |  |  |  |  |  |  | ≤0.125 | >128* μg/mL | 6 | 15 | 8 | 0.25
7 | CO[C@H]1C[C@H]2C=CC3C4[C@H](O)[C@@H](C)[C@@H](OC(=O)c5ccc[nH]5)[C@@H]3O[C@]42/C(C)=C/[C@@H](C)[C@@H]([C@@H](C)OC(=O)C(=O)NC2CC2)OC1=O [Example 117] |  |  |  |  |  |  |  | ≤0.125 | 128 µg/mL | 0.7 | 11 | 4 | ≤0.125
8 | COCCNC(=O)C(=O)O[C@H](C)[C@H]1OC(=O)[C@@H](OC)C[C@H]2C=CC3C4[C@H](O)[C@@H](C)[C@@H](OC(=O)c5ccc[nH]5)[C@@H]3O[C@]42/C(C)=C/[C@H]1C [Example 119] |  |  |  |  |  |  |  | ≤0.125 | >128* μg/mL | 1.2 | 11 | 8 | 0.25
